From patent publication US20240317748A1, “CARBONYL SUBSTITUTED DIAZASPIRO COMPOUNDS AND ITS USE” (BIONOVA PHARMACEUTICALS (SHANGHAI) LIMITED, priority 2021, published 2024)
pIC50: −log10 of the molar value.

Experiments:
Menin-MLL1 = molecular target: T1, Menin-MLL1 (Homo sapiens, UniProt O00255); assay: Menin-MLL1 inhibition assay (fluorescence polarization, Menin protein + FAM-MLL peptide); format: binding; settings: Menin (2-610) isoform 2, FAM-labelled MLL peptide, mP readout; read-out: Biochemical assay Menin-MLL1 IC50
T1 construct: Menin (2-610) isform2; purchased ChemPartner 2020111101
T1 sequence (O00255 2-610): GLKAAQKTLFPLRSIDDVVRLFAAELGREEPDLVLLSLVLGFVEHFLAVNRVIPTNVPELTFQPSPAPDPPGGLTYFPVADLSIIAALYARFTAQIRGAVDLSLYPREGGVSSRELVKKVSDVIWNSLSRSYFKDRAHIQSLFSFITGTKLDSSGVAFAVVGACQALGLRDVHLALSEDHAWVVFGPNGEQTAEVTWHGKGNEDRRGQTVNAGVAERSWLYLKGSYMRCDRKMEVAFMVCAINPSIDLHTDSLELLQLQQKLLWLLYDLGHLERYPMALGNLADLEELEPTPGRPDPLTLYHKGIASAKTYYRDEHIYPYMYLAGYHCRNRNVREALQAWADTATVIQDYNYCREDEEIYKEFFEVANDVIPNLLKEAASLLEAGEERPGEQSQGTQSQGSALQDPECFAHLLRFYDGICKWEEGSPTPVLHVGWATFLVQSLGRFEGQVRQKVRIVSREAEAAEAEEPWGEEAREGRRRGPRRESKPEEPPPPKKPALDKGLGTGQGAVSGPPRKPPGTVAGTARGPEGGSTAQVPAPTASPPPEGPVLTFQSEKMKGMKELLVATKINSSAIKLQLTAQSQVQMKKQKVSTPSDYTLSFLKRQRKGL

MV-4-11 cells = assay: Cell proliferation assay (CellTiter-Glo), MV-4-11; format: cell-based, human; settings: Homo sapiens, MV4-11, 96 h; MV-4-11 (MLL-AF4), 4 days incubation; read-out: Cell antiproliferation assay MV-4-11 IC50
Procedure, shortened: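 Antiproliferative activity by CellTiter-Glo luminescence; MV4-11 (MLL-AF4) in IMDM/10% FBS, 4 days; MOLM13 (MLL-AF9) in RPMI1640/20% FBS, 12 days; OCI-AML3 (NPM1c) in RPMI1640/20% FBS, 5 days; HL-60 (MLL wild-type control) in IMDM/20% FBS, 4 days. Compounds 4-fold serial from 2 mM stock, 200-fold final dilution; 37 °C, 5% CO2.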

OCI-AML3 cells = assay: Cell proliferation assay (CellTiter-Glo), OCI-AML3; format: cell-based, human; settings: Homo sapiens, OCI-AML-3, 120 h; OCI-AML3 (NPM1c mutation), 5 days incubation; read-out: Cell antiproliferation assay OCI-AML3 IC50
Description: (§1) The antiproliferative activity of test compounds was assessed in human leukemia cell lines. The cell line MV4-11, MOLM13 and OCI-AML3, which expresses the MLL fusion protein MLL-AF4, MLL-AF9 and carry the NPM1c gene mutation, respectively, were tested. HL-60 was used as a control cell line containing two MLL wildtype alleles in order to exclude compounds that display general cytotoxic effect. MV4-11 cells were cultured in IMDM supplemented with 10% FBS, MOLM13 and OCI-AML3 cells were cultured in RPMI1640 supplemented with 20% FBS, and HL-60 cells were cultured in IMDM supplemented with 20% FBS. Corresponding cells (MV4-11, MOLM13, OCI-AML3 or HL-60 cell line) were seeded in 100 uL medium per well in 96-well plate (white wall with clear bottom, tissue culture treated, Corning, Cat. No. CLS3903; Lot.No. 30419025). Plates were placed in the CO2 incubator overnight. Compounds solution (2 mM starting, 4-fold serial dilution) were prepared and added to the wells containing 100 μL of the culture medium with HPD300 according to the plate map and centrifuge at 1000 rpm for 1 minutes (200-fold dilution totally). MV4-11, MOLM13, OCI-AML3 and HL-60 cells were incubated with the compounds for 4, 12, 5 and 4 days, respectively, under 5% CO2 at 37° C., respectively. 100 μL of CellTiter-Glo reagent (Promega, Cat. No. G7573, Lot. No. 0000416710) was added to the assay plate by Multidrop Combi instrument, contents were mixed for 10 minutes on an orbital shaker to induce cell lysis. After incubation at room temperature for 10 mins, clear bottom with white back seal was pasted and luminescence with Envision was read.

MOLM13 cells = assay: Cell proliferation assay (CellTiter-Glo), MOLM13; format: cell-based, human; settings: Homo sapiens, MOLM-13, 288 h; MOLM13 (MLL-AF9), 12 days incubation; read-out: Cell antiproliferation assay MOLM13 IC50
Description: as §1

HL-60 cells = assay: Cell proliferation assay (CellTiter-Glo), HL-60 control line; format: cell-based, human; settings: Homo sapiens, 96 h, 4 days incubation; for pIC50: HL-60 control line (MLL wildtype), read-out: Cell antiproliferation assay HL-60 IC50; for inhibition at 10 µM: HL-60 control line, read-out: HL-60 (Pct of inhibition at 10 μM)
Description: as §1

hERG potassium channel = molecular target: T2, hERG potassium channel (Homo sapiens, UniProt Q12809); assay: hERG inhibition study (Qpatch, CHO-hERG cells); format: cell-based; settings: highest test concentration 40 μM
T2 construct: expressed in transfected cells; host or cells: CHO-hERG cells
Description: The inhibition effects of the test compounds on hERG were carried out in CHO-hERG cells (cell density: 21.5×10˜6/mL). 10 μL compound mother liquor was added to 20 μL DMSO solution, and then continuously diluted to 6 concentrations by 3-fold. The compound solution (4 uL) of six different concentrations were added to the extracellular solution (996 uL) and diluted to the final concentration to be tested (250-fold dilution totally). The highest test concentration was 40.00 μM, followed by […], 13.3, 4.4, 1.48, 0.49 and 0.16 μM. […] The high impedance sealing of single cell and the formation of whole cell model were all completed automatically by Qpatch instrument.

[1] = Liver microsome stability study; format: in vitro ADME; settings: human liver microsomes 0.5 mg/mL, 1 μM compound, NADPH, 37° C.; read-out: Human liver microsome T1/2
Description: Studies were carried out in liver microsomes (Corning, 0.5 mg/mL). Stock solutions were prepared at 10 mM in DMSO for the test compounds. Aliquots of the stock solutions were diluted to 0.5 mM with acetonitrile, and then further diluted upon the addition of liver microsomes/buffer to 1.5 μM. An aliquot of 30 μL of 1.5 μM solutions was mixed with 15 μL of 6 mM NADPH and the final concentration of NADPH was 2 mM, which had been pre-warmed to 37° C. Test compounds and Ketanserin final concentrations were 1 μM. The plates were kept in a 37° C. water bath for the duration of the experiment. At each time point (0, 5, 15, 30, 45 minutes), 135 μL of acetonitrile was added into corresponding wells. After the final time point was quenched by acetonitrile, the assay plates were shaken at the vibrator (IKA, MTS 2/4) for 10 min (600 rpm/min) and then centrifuged at 5,594 g for 15 min (Thermo Multifuge×3R). Aliquots of the supernatant were taken, diluted 1:1 into distilled water, and analyzed by LC-MS/MS. The peak area response ratio to internal standard (PARR) of the compounds at 5, 15, 30, 45 minutes was compared to the PARR at time 0 to determine the percent of test compound remaining at each time point. Half-lives were calculated using Excel software, fitting to a single-phase exponential decay equation.

T2 sequence (Q12809 whole entry): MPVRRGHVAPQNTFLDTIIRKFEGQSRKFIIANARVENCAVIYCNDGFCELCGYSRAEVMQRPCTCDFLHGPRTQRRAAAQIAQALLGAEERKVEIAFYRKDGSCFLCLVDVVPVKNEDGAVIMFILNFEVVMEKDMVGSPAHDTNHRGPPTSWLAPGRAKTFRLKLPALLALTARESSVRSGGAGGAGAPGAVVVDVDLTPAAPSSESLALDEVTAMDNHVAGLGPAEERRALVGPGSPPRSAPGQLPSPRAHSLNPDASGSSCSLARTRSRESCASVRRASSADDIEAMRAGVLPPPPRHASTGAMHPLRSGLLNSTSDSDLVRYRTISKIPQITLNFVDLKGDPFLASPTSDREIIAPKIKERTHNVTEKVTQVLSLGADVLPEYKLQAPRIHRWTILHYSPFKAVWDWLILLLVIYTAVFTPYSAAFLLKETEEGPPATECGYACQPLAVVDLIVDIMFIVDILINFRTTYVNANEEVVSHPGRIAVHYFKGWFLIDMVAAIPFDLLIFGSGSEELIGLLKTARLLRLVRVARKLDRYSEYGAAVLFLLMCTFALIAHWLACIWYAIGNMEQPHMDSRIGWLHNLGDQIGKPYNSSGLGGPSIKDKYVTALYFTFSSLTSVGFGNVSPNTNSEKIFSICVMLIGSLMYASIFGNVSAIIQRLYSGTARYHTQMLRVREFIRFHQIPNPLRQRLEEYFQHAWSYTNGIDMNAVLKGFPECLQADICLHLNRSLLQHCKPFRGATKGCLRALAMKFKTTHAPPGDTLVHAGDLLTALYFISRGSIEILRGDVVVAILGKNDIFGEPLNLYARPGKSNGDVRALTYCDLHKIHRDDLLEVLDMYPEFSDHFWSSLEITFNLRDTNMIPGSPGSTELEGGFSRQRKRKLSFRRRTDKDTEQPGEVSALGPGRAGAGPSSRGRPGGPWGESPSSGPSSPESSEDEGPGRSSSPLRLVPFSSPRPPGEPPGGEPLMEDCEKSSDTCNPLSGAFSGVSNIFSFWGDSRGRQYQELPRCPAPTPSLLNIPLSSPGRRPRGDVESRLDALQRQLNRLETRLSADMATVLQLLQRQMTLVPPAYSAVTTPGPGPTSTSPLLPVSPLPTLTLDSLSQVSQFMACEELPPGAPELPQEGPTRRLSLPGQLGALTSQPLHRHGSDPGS

CCN(C(=O)c1cc(F)ccc1Oc1nncnc1N1CC2(CCN(C(=O)[C@H]3NC[C@@H]4CCC[C@@H]43)CC2)C1)C(C)C [Example 74]
pIC50 (Menin-MLL1): 8.34
pIC50 (MV-4-11 cells): 8.25
pIC50 (OCI-AML3 cells): 7.51
pIC50 (MOLM13 cells): 7.83
pIC50 (HL-60 cells): < 5.00
inhibition at 10 µM (HL-60 cells): 7.9%
pIC50 (hERG potassium channel): < 4.40

CCN(C(=O)c1cc(F)ccc1Oc1nncnc1N1CC2(CCN(C(=O)[C@@H]3C[C@H](C)CN3)CC2)C1)C(C)C [Example 87]
pIC50 (Menin-MLL1): 8.31
pIC50 (MV-4-11 cells): 7.38
half-life at 1 μM [1]: 1.1 h

CCN(C(=O)c1cc(F)ccc1Oc1nncnc1N1CC2(CCN(C(=O)[C@H]3NCCC3(C)C)CC2)C1)C(C)C [Example 65]
pIC50 (Menin-MLL1): 8.51
pIC50 (MV-4-11 cells): 7.82
pIC50 (MOLM13 cells): 7.24
pIC50 (HL-60 cells): < 5.00
inhibition at 10 µM (HL-60 cells): -3.7%
half-life at 1 μM [1]: 1.12 h

C[C@H]1CN[C@H](C(=O)N2CCC3(CC2)CN(c2ncnnc2Oc2ccc(F)cc2-c2cncnc2C2CC2)C3)C1 [Example 72]
pIC50 (Menin-MLL1): 8.26
pIC50 (MV-4-11 cells): 7.25
half-life at 1 μM [1]: 2.63 h

CC1(C)[C@@H]2[C@@H](C(=O)N3CCC4(CC3)CN(c3ncnnc3Oc3ccc(F)cc3-c3cncnc3C3CC3)C4)NC[C@@H]21 [Example 81]
pIC50 (Menin-MLL1): 8.41
pIC50 (MV-4-11 cells): 8.11
pIC50 (OCI-AML3 cells): 7.59
pIC50 (MOLM13 cells): 7.78
pIC50 (HL-60 cells): < 5.00
inhibition at 10 µM (HL-60 cells): 21.4%

CCN(C(=O)c1cc(F)ccc1Oc1cncnc1N1CC2(CN(C(=O)[C@@H]3C[C@@H](F)CN3)C2)C1)C(C)C [Example 38]
pIC50 (Menin-MLL1): 8.48
pIC50 (MV-4-11 cells): 7.16
half-life at 1 μM [1]: 1 h

C[C@@H]1CCN[C@@H]1C(=O)N1CCC2(CC1)CN(c1ncnnc1Oc1ccc(F)cc1-c1cncnc1C1CC1)C2 [Example 69]
pIC50 (Menin-MLL1): 8.36
pIC50 (MV-4-11 cells): 7.25
half-life at 1 μM [1]: 2.57 h

CCN(C(=O)c1cc(F)ccc1Oc1nncnc1N1CC2(CCN(C(=O)[C@H]3NCC[C@H]3C)CC2)C1)C(C)C [Example 63]
pIC50 (Menin-MLL1): 8.46
pIC50 (MV-4-11 cells): 7.36
half-life at 1 μM [1]: 2.08 h

CCN(C(=O)c1cc(F)ccc1Oc1nncnc1N1CC2(CCN(C(=O)[C@H]3NCC[C@@H]3OC)CC2)C1)C(C)C [Example 84]
pIC50 (Menin-MLL1): 8.29
pIC50 (MV-4-11 cells): 7.70
pIC50 (OCI-AML3 cells): 7.17
pIC50 (MOLM13 cells): 7.22
pIC50 (HL-60 cells): < 5.00
inhibition at 10 µM (HL-60 cells): 15.1%
half-life at 1 μM [1]: 1.13 h

CC[C@H]1CCN[C@@H]1C(=O)N1CCC2(CC1)CN(c1ncnnc1Oc1ccc(F)cc1C(=O)N(CC)C(C)C)C2 [Example 70]
pIC50 (Menin-MLL1): 8.34
pIC50 (MV-4-11 cells): 8.02
pIC50 (OCI-AML3 cells): 7.28
pIC50 (MOLM13 cells): 7.31
pIC50 (HL-60 cells): < 5.00
inhibition at 10 µM (HL-60 cells): 1%

CC[C@@H]1[C@@H](C(=O)N2CCC3(CC2)CN(c2ncnnc2Oc2ccc(F)cc2C(=O)N(CC)C(C)C)C3)NC[C@@H]1F [Example 86]
pIC50 (Menin-MLL1): 8.44
pIC50 (MV-4-11 cells): 7.12
pIC50 (OCI-AML3 cells): 6.55
pIC50 (MOLM13 cells): 6.70
pIC50 (HL-60 cells): < 5.00
inhibition at 10 µM (HL-60 cells): 10.8%

CCN(C(=O)c1cc(F)ccc1Oc1cncnc1N1CC2(CCN(C(=O)[C@]3(C)CCCN3)CC2)C1)C(C)C [Example 22]
pIC50 (Menin-MLL1): 8.31
pIC50 (MV-4-11 cells): 6.87
half-life at 1 μM [1]: 1.53 h

O=C([C@@H]1C[C@@H](F)CN1)N1CCC2(CC1)CN(c1ncnnc1Oc1ccc(F)cc1-c1cncnc1C1CC1)C2 [Example 62]
pIC50 (Menin-MLL1): 8.47
pIC50 (MV-4-11 cells): 7.40
pIC50 (HL-60 cells): < 5.00
inhibition at 10 µM (HL-60 cells): -9.1%
half-life at 1 μM [1]: 1.43 h

C[C@H]1CCN[C@@H]1C(=O)N1CCC2(CC1)CN(c1ncnnc1Oc1ccc(F)cc1-c1ccc(C#N)cc1C1CC1)C2 [Example 79]
pIC50 (Menin-MLL1): 8.00
pIC50 (MV-4-11 cells): 8.23
pIC50 (OCI-AML3 cells): 7.59
pIC50 (MOLM13 cells): 7.81
pIC50 (HL-60 cells): < 5.00
inhibition at 10 µM (HL-60 cells): 33.8%

CCN(C(=O)c1cc(F)ccc1Oc1nncnc1N1CC2(CCN(C(=O)[C@@H]3C[C@@H](F)CN3)CC2)C1)C(C)C [Example 39, N-ethyl-5-fluoro-2-[(5-{7-[(2S,4R)-4-fluoropyrrolidine-2-carbonyl]-2,7-diazaspiro [3.5]nonan-2-yl}-1,2,4-triazin-6-yl)oxy]-N-(propan-2-yl) benzamide]
pIC50 (Menin-MLL1): 8.38
pIC50 (MV-4-11 cells): 7.37
pIC50 (HL-60 cells): < 5.00
inhibition at 10 µM (HL-60 cells): -24.9%
half-life at 1 μM [1]: 1.57 h
